Measured values taken from ChEMBL document CHEMBL6083271 (J Med Chem, 2024).
Activity calls are given as the source filed them. The calls are words filed in the database; no cut-off is given here.

Key:
[1] = Volume of distribution at steady state in rat at 5 mg/kg, iv; format: ADME, organism-based; details: in vivo, read-out: Vdss
MV4-11 [2] = assay: Upregulation of p53 level in human MV4-11 cells at 1 to 3 nM measured after 2 hrs by Western blot analysis; format: functional, cell-based; details: dose 1-3 nM
[3] = AUC (0 to t) in mouse at 10 mg/kg, iv; format: ADME, organism-based; details: in vivo
[4] = Volume of distribution at steady state in dog at 2.5 mg/kg, iv; format: ADME, organism-based, Canis lupus familiaris; details: in vivo, read-out: Vdss
MV4-11 [5] = assay: Antiproliferative activity against human MV4-11 cells assessed as inhibition of cell growth measured after 4 days by WST-8 assay; format: functional, cell-based; details: MV4-11, 96 h
[6] = Upregulation of p21 mRNA level in human RS4;11 cells assessed as fold change at 10 nM measured after 3 hrs by qRT-PCR analysis; format: functional
RS4-11 [7] = assay: Antiproliferative activity against human RS4;11 cells assessed as inhibition of cell growth measured after 4 days by WST-8 assay; format: functional, cell-based; details: RS4-11, 96 h
[8] = Upregulation of p21 mRNA level in human MV4-11 cells assessed as fold increase at 30 nM by qRT-PCR analysis; format: functional
OCI-AML2 = assay: Antiproliferative activity against human OCI-AML2 cells assessed as inhibition of cell growth measured after 4 days by WST-8 assay; format: functional, cell-based; details: OCI-AML2, 96 h
RS4-11 [9] = assay: Downregulation of MDM2 level in human RS4;11 cells at 1 nM measured after 2 hrs by Western blot analysis; format: functional, cell-based
RS4-11 [10] = assay: Upregulation of p53 level in human RS4;11 cells harbouring wild type p53 at 1 to 3 nM measured after 2 hrs by Western blot analysis; format: functional, cell-based; details: dose 1-3 nM
[11] = Toxicity in female NOD-SCID mouse assessed as effect on body weight at 25 mg/kg, iv qd; format: organism-based; details: in vivo
OCI-AML-3 = assay: Antiproliferative activity against human OCI-AML-3 cells assessed as inhibition of cell growth measured after 4 days by WST-8 assay; format: functional, cell-based; details: OCI-AML-3, 96 h
SIG-M5 = assay: Antiproliferative activity against human SIG-M5 cells assessed as inhibition of cell growth measured after 4 days by WST-8 assay; format: functional, cell-based; details: SIG-M5, 96 h
RS4-11 [12] = assay: Downregulation of MDM2 protein level in human RS4;11 cells at 3 nM measured after 2 hrs in presence of lenalidomide by Western blot analysis; format: functional, cell-based
[13] = Half life in rat at 5 mg/kg, iv; format: ADME, organism-based; details: in vivo
MOLM-13 = assay: Antiproliferative activity against human MOLM-13 cells assessed as inhibition of cell growth measured after 4 days by WST-8 assay; format: functional, cell-based; details: MOLM-13, 96 h
RS4-11 [14] = assay: Antitumor activity against human RS4;11 cells xenografted in female NOD-SCID mouse model assessed as median survival time at 50 mg/kg, iv qw (reference value: 47.5 days); format: functional
[15] = Upregulation of PUMA mRNA level in human MV4-11 cells assessed as fold increase at 30 nM by qRT-PCR analysis; format: functional
ML-2 = assay: Antiproliferative activity against human ML-2 cells assessed as inhibition of cell growth measured after 4 days by WST-8 assay; format: functional, cell-based; details: ML-2, 96 h
RS4-11 [16] = assay: Antitumor activity against human RS4;11 cells xenografted in female NOD-SCID mouse model assessed as reduction in tumor size at 25 mg/kg, iv administered every other day for 2 weeks by vernier method relative to control; format: functional; set-up: scale not given: the % may be the effect or the level left
[17] = Clearance in rat at 5 mg/kg, iv; format: ADME, organism-based; details: in vivo
MV4-11 [18] = assay: Downregulation of MDM2 level in human MV4-11 cells at 3 to 30 nM measured after 2 hrs by Western blot analysis; format: functional, cell-based; details: dose 3-30 nM
MV4-11 [19] = assay: Effect on p53 mRNA level in human MV4-11 cells at 30 nM by qRT-PCR analysis; format: functional, cell-based
RS4-11 [20] = assay: Effect of p53 mRNA level in human RS4;11 cells at 10 nM by qRT-PCR analysis; format: functional, cell-based
RS4-11 [21] = assay: Upregulation of p53 protein level in human RS4;11 cells at 3 nM measured after 2 hrs in presence of lenalidomide by Western blot analysis; format: functional, cell-based
[22] = Half life in mouse at 10 mg/kg, iv; format: ADME, organism-based; details: in vivo
[23] = AUC (0 to t) in rat at 5 mg/kg, iv; format: ADME, organism-based; details: in vivo
RS4-11 [24] = assay: Antitumor activity against human RS4;11 cells xenografted in female NOD-SCID mouse model assessed as median survival time at 25 mg/kg, iv qw (reference value: 47.5 days); format: functional
[25] = Half life in dog at 2.5 mg/kg, iv; format: ADME, organism-based, Canis lupus familiaris; details: in vivo
[26] = Upregulation of MDM2 mRNA level in human RS4;11 cells assessed as fold change at 10 nM measured after 3 hrs by qRT-PCR analysis; format: functional
RS4-11 [27] = assay: Antitumor activity against human RS4;11 cells xenografted in female NOD-SCID mouse model assessed as tumor regression at 25 mg/kg, iv administered every other day for 2 weeks by vernier method relative to control; format: functional
[28] = AUC (0 to t) in dog at 2.5 mg/kg, iv; format: ADME, organism-based, Canis lupus familiaris; details: in vivo
MV4-11 [29] = assay: Antiproliferative activity against human MV4-11 cells assessed as inhibition of cell growth measured after 4 days in presence of lenalidomide by WST-8 assay; format: functional, cell-based; details: time 4.0 day
[30] = Upregulation of PUMA mRNA level in human RS4;11 cells assessed as fold change at 10 nM measured after 3 hrs by qRT-PCR analysis; format: functional
RS4-11 [31] = assay: Antitumor activity against human RS4;11 cells xenografted in female NOD-SCID mouse model assessed as tumor regression at 25 mg/kg, iv measured upto 34 days by vernier method relative to control; format: functional; details: time <= 34 day
MV4-11 [32] = assay: Upregulation of p53 protein level in human MV4-11 cells at 3 nM measured after 2 hrs in presence of lenalidomide by Western blot analysis; format: functional, cell-based
MV4-11 [33] = assay: Downregulation of MDM2 protein level in human MV4-11 cells at 3 nM measured after 2 hrs in presence of lenalidomide by Western blot analysis; format: functional, cell-based
MOLM-14 = assay: Antiproliferative activity against human MOLM-14 cells assessed as inhibition of cell growth measured after 4 days by WST-8 assay; format: functional, cell-based; details: MOLM-14, 96 h
OCI-AML-5 = assay: Antiproliferative activity against human OCI-AML5 cells assessed as inhibition of cell growth measured after 4 days by WST-8 assay; format: functional, cell-based; details: OCI-AML-5, 96 h
RS4-11 [34] = assay: Antiproliferative activity against human RS4;11 cells assessed as inhibition of cell growth measured after 4 days in presence of lenalidomide by WST-8 assay; format: functional, cell-based; details: time 4.0 day
[35] = Volume of distribution at steady state in mouse at 10 mg/kg, iv; format: ADME, organism-based; details: in vivo, read-out: Vdss
[36] = Clearance in dog at 2.5 mg/kg, iv; format: ADME, organism-based, Canis lupus familiaris; details: in vivo
[37] = Clearance in mouse at 10 mg/kg, iv; format: ADME, organism-based; details: in vivo

In the case of O=C1CCC(N2Cc3c(C#CC4CCN(C(=O)[C@H]5CC[C@H](NC(=O)[C@@H]6NC7(CCCCC7)[C@@]7(C(=O)Nc8cc(Cl)ccc87)[C@H]6c6cccc(Cl)c6F)CC5)CC4)cccc3C2=O)C(=O)N1 (some centres undefined), the Vd [1] is reported as 0.15 L/kg, the Activity (MV4-11 [2]) is reported as “Active” and the AUC(0-t) [3] is reported as 156000 ng·h/mL. The Vd [4] was 0.93 L/kg, the IC50 (MV4-11 [5]) was 2 nM and the “fold change (FC)” value [6] was 8. The IC50 (RS4-11 [7]) was 0.7 nM, the “fold change (FC)” value [8] was 10 and the IC50 (OCI-AML2) was 24 nM. The Activity (RS4-11 [9]) was “Active”, the Activity (RS4-11 [10]) was “Active” and the Activity [11] was “Non-toxic”. For the same compound, the IC50 (OCI-AML-3) was 212 nM, the IC50 (SIG-M5) was 20 nM and the Activity (RS4-11 [12]) was “inactive”. It also gave a half-life [13] of 5.6 h, an IC50 (MOLM-13) of 5.7 nM and an MST (RS4-11 [14]) of 72 days. For the same compound, the “fold change (FC)” value [15] was 3, the IC50 (ML-2) was 1.2 nM and the Activity (RS4-11 [16]) was greater than 70%. For the same compound, the clearance [17] was 3.2 mL/min/kg, the Activity (MV4-11 [18]) was “Active” and the Activity (MV4-11 [19]) was “inactive”. For the same compound, the Activity (RS4-11 [20]) was “inactive”, the Activity (RS4-11 [21]) was “inactive” and the half-life [22] was 6.1 h. For the same compound, the AUC(0-t) [23] was 13000 ng·h/mL, the MST (RS4-11 [24]) was 78.5 days and the half-life [25] was 6.3 h. For the same compound, the “fold change (FC)” value [26] was 8, the Activity (RS4-11 [27]) was 100% and the AUC(0-t) [28] was 5500 ng·h/mL. For the same compound, the Activity (MV4-11 [29]) was “inactive”, the “fold change (FC)” value [30] was 8 and the Activity (RS4-11 [31]) was 100%. For the same compound, the Activity (MV4-11 [32]) was “inactive”, the Activity (MV4-11 [33]) was “inactive” and the IC50 (MOLM-14) was 7.6 nM. For the same compound, the IC50 (OCI-AML-5) was 23 nM, the Activity (RS4-11 [34]) was “inactive” and the Vd [35] was 0.54 L/kg. The clearance [36] was 7.4 mL/min/kg and the clearance [37] was 1.1 mL/min/kg.
